These results are taken from US5925648A, “Tricyclic N-cyanoimines useful as inhibitors of a farnesyl-protein transferase” (Schering Corporation, priority 1997, dated 1999).

The first assay addresses T1, farnesyl protein transferase (Rattus norvegicus, UniProt Q02293+Q04631).
T1 construct: partially purified rat brain farnesyl protein transferase (FPT); from tissue; host or cells: rat brain
The assay can be described thus: FPT IC50 (inhibition of farnesyl protein transferase, in vitro enzyme assay; Ras-CVLS farnesylation by partially purified rat brain FPT). Format: biochemical. The protocol:
1. In vitro enzyme assays: FPT IC50 (inhibition of farnesyl protein transferase, in vitro enzyme assay) are determined by the methods disclosed in […] or WO 95/10516.
Usually IC50 stands for the point on the concentration scale where inhibition reaches its midpoint. A high value points to weaker potency in that assay. As to `N#CN=C(Nc1cc[n+]([O-])cc1)N1CCC(=C2c3ccc(Cl)cc3CCc3cc(Br)cnc32)CC1` [Example 49], half-maximal inhibition (IC50) required 13 nM. Still for that read-out and setting: to `CN(C)CCCNC(=NC#N)N1CCC(=C2c3ccc(Cl)cc3CCc3cc(Br)cnc32)CC1` [Example 45] belongs 74 nM. For `N#CN=C(Nc1ccc2c(c1)COCO2)N1CCN(C2c3ccc(Cl)cc3CCc3cc(Br)cnc32)CC1` (stereo not drawn) [Example 24], it took 10 nM to reach half-maximal inhibition (IC50). `N#CN=C(NC1CCN(Cc2ccccc2)CC1)N1CCC(=C2c3ccc(Cl)cc3CCc3cc(Br)cnc32)CC1` [Example 22] displayed an IC50 of 170 nM.

`N#CN=C(NCc1ccc(S(N)(=O)=O)cc1)N1CCC(=C2c3ccc(Cl)c(Br)c3CCc3cc(Br)cnc32)CC1` [Example 74]: the IC50 is 15 nM. `N#CN=C(Nc1ccc2c(c1)COCO2)N1CCC(=C2c3ccc(Cl)cc3CCc3cccnc32)CC1` [Example 10] had an IC50 of 18 nM. For the compound `N#CN=C(N1CCCCC1)N1CCC(=C2c3ccc(Cl)cc3CCc3cc(Br)cnc32)CC1` [Example 32], the midpoint of inhibition, the IC50, lay at 270 nM. The compound `N#CN=C(Nc1ccc2ncccc2c1)N1CCC(=C2c3ccc(Cl)cc3CCc3cc(Br)cnc32)CC1` [Example 46] registered a half-inhibitory concentration (IC50) of 150 nM. As for `N#CN=C(Nc1ccc2c(c1)COCO2)N1CCC(C2c3ccc(Cl)cc3C=Cc3cc(Br)cnc32)CC1` (stereo not drawn) [Example 34], 9600 nM corresponded to half-maximal inhibition (IC50). In the case of `N#CN=C(NCc1ccc[n+]([O-])c1)N1CCC(=C2c3ccc(Cl)c(Br)c3CCc3cc(Br)cnc32)CC1` [Example 81], half-maximal inhibition (IC50) required 4.6 nM. The compound `CN1CCN(NC(=NC#N)N2CCC(=C3c4ccc(Cl)cc4CCc4cc(Br)cnc43)CC2)CC1` [Example 31] had an IC50 of 260 nM. The compound `N#CN=C(NCc1ccncc1)N1CCC(=C2c3ccc(Cl)cc3CCc3cccnc32)CC1` [Example 78] registered an IC50 of 64 nM. For the compound `N#CN/C(=N/Cc1ccc2c(c1)OCO2)N1CCC(=C2c3ccc(Cl)cc3CCc3cc(Br)cnc32)CC1` [Example 52], 24 nM corresponded to half-maximal inhibition (IC50). Still for that read-out and setting: to `N#CN=C(NCc1ccncc1)N1CCC(C2c3ccc(Cl)c(Br)c3CCc3cc(Br)cnc32)CC1` (stereo not drawn) [Example 67] belongs 1.7 nM; to `N#CN=C(NCCCN1CCCC1=O)N1CCC(C2c3ccc(Cl)c(Br)c3CCc3cc(Br)cnc32)CC1` (stereo not drawn) [Example 68], 7 nM; to `COc1ccc2[nH]cc(CCNC(=NC#N)N3CCC(=C4c5ccc(Cl)cc5CCc5cc(Br)cnc54)CC3)c2c1` [Example 64], more than 950 nM. In turn, `N#CN=C(NCc1ccncc1)N1CCC(=C2c3ccc(Cl)c(Br)c3CCc3cc(Br)cnc32)CC1` [Example 61] returned an IC50 of 5 nM.

`N#CN=C(N1CCOCC1)N1CCC(=C2c3ccc(Cl)cc3CCc3cc(Br)cnc32)CC1` [Example 13] yielded an IC50 of 720 nM. In the case of `N#CN=C(NCc1ccc2c(c1)OCO2)N1CCC(=C2c3ccc(Cl)c(Br)c3CCc3cc(Br)cnc32)CC1` [Example 72], the IC50 is more than 100 nM. For `Cn1c(NC(=NC#N)N2CCC(=C3c4ccc(Cl)cc4CCc4cc(Br)cnc43)CC2)cc(=O)n(C)c1=O` [Example 50], half-maximal inhibition (IC50) required 300 nM. Same read-out and setting: the result for `N#CN=C(NCC1CCN(C(N)=O)CC1)N1CCC(=C2c3ccc(Cl)c(Br)c3CCc3cc(Br)cnc32)CC1` [Example 77] reads 4.4 nM; that for `CSC(=NC#N)N1CCC(=C2c3ccc(Cl)c(Br)c3CCc3cc(Br)cnc32)CC1` [Example 56], 42 nM; that for `CCOC(=NC#N)N1CCC(=C2c3ccc(Cl)cc3CCc3cc(Br)cnc32)CC1` [Example 16], 54 nM. On to `N#CN=C(Nc1ccc2c(c1)COCO2)N1CCC(=C2c3ccc(Cl)c(Br)c3CCc3cccnc32)CC1` [Example 47], for which half-maximal inhibition (IC50) was put at 14 nM. Consider `N#CN=C(Nc1ccc(N2CCOCC2)cc1)N1CCC(=C2c3ccc(Cl)c(Br)c3CCc3cc(Br)cnc32)CC1` [Example 80], for which the IC50 came to 38 nM.

Regarding `CSC(=NC#N)N1CCC(=C2c3ccc(Cl)cc3CCc3cc(Br)cnc32)CC1` [Example 73], the midpoint of inhibition, the IC50, lay at 26 nM. On to `N#CN=C(NCc1ccncc1)N1CCN(C2c3ccc(Cl)cc3CCc3cc(Br)cnc32)CC1` (stereo not drawn) [Example 43], for which the IC50 worked out at 11 nM.

For `CSC(=NC#N)N1CCC(=C2c3ccc(Cl)cc3CCc3cc(Br)cnc32)CC1` [Example 12], the IC50 was less than 410 nM.

`N#CN=C(NCCO)N1CCC(=C2c3ccc(Cl)cc3CCc3cc(Br)cnc32)CC1` [Example 27] returned an IC50 of 17 nM.

For `N#CN/C(=N/c1ccncc1)N1CCC(=C2c3ccc(Cl)cc3CCc3cc(Br)cnc32)CC1` [Example 54], the IC50 was more than 110 nM.

In the case of `CS(=O)(=O)c1ccc(N/C(=N\C#N)N2CCC(=C3c4ccc(Cl)cc4CCc4cc(Br)cnc43)CC2)cc1` [Example 59], the IC50 amounted to 87 nM. As for `CSC(=NC#N)N1CCC(=C2c3ccc(Cl)c(Br)c3CCc3cc(Br)cnc32)CC1` [Example 66], the IC50 amounted to 14 nM.

In the case of `N#CN=C(NCc1ccco1)N1CCC(=C2c3ccc(Cl)cc3CCc3cc(Br)cnc32)CC1` [Example 51], the IC50 stood at 73 nM. For the compound `N#CN=C(NCCOCCO)N1CCC(C2c3ccc(Cl)c(Br)c3CCc3cc(Br)cnc32)CC1` (stereo not drawn) [Example 69], the IC50 was 3.7 nM.

The compound `N#CN=C(N)N1CCC(=C2c3ccc(Cl)cc3CCc3cc(Br)cnc32)CC1` [Example 33] came in with an IC50 of 2800 nM.

Take `N#C/N=C(\Nc1ccc([N+](=O)[O-])cc1)N1CCC(=C2c3ccc(Cl)cc3CCc3cc(Br)cnc32)CC1` [Example 48]: inhibition was half-maximal at 64 nM (IC50).

As for `N#CN=C(NCc1cccnc1)N1CCC(=C2c3ccc(Cl)c(Br)c3CCc3cc(Br)cnc32)CC1` [Example 75], the IC50 was 4.8 nM. In the case of `N#CN=C(Nc1cccnc1)N1CCC(=C2c3ccc(Cl)cc3CCc3cc(Br)cnc32)CC1` [Example 23], the IC50 is 140 nM. Turning to `N#CN=C(NCc1ccc(N)cc1)N1CCC(=C2c3ccc(Cl)cc3CCc3cc(Br)cnc32)CC1` [Example 53], the IC50 was 87 nM. `N#CN=C(Nc1ccc2c(c1)OCCO2)N1CCC(=C2c3ccc(Cl)cc3CCc3cc(Br)cnc32)CC1` [Example 55] came in with an IC50 of 110 nM. Same read-out and setting: the result for `N#CN=C(NCC1CCNCC1)N1CCC(=C2c3ccc(Cl)c(Br)c3CCc3cc(Br)cnc32)CC1` [Example 76] reads 4.7 nM; that for `N#CN=C(c1ccncc1)N1CCC(C2c3ncc(Br)cc3CCc3cc(Cl)cc(Br)c32)CC1` (stereo not drawn) [Example 83], more than 33 nM.

The subject of the next assay is Ras processing. Description: COS IC50, cell-based assay: COS cells activity inhibition of Ras processing. The protocol:
2. Cell-based assay. COS IC50 values refer to the COS cells activity inhibition of Ras processing, are determined by the methods disclosed in […] or WO 95/10516.
Take `N#CN=C(Nc1ccc2c(c1)COCO2)N1CCN(C2c3ccc(Cl)cc3CCc3cc(Br)cnc32)CC1` (stereo not drawn) [Example 24]: the IC50 was less than 250 nM. Compound `N#CN=C(NCc1cc[n+]([O-])cc1)N1CCC(=C2c3ccc(Cl)cc3CCc3cc(Br)cnc32)CC1` [Example 70] returned an IC50 of 16000 nM. The same measure, in the same setting: the result for `N#CN=C(Nc1ccccc1)N1CCC(=C2c3ccc(Cl)cc3CCc3cccnc32)CC1` [Example 14] reads 2500 nM. For the compound `N#CN=C(Nc1ccc2c(c1)COCO2)N1CCC(=C2c3ccc(Cl)cc3CCc3cccnc32)CC1` [Example 10], 250 nM corresponded to half-maximal inhibition (IC50). `CCOC(=O)N1CCC(NC(=NC#N)N2CCC(=C3c4ccc(Cl)cc4CCc4cc(Br)cnc43)CC2)CC1` [Example 15] showed an IC50 of 560 nM.

`N#CN=C(Nc1ccc(F)cc1)N1CCC(=C2c3ccc(Cl)cc3CCc3cc(Br)cnc32)CC1` [Example 29] registered an IC50 of 570 nM. `N#CN=C(NCCCn1ccnc1)N1CCC(=C2c3ccc(Cl)cc3CCc3cc(Br)cnc32)CC1` [Example 42] showed an IC50 of 4000 nM. `COc1ccc(NC(=NC#N)N2CCC(=C3c4ccc(Cl)cc4CCc4cc(Br)cnc43)CC2)cc1` [Example 25] showed an IC50 of 270 nM.

`N#CN=C(NCc1ccc[n+]([O-])c1)N1CCC(=C2c3ccc(Cl)cc3CCc3cc(Br)cnc32)CC1` [Example 60] had an IC50 of more than 1000 nM. On to `CCOC(=NC#N)N1CCC(=C2c3ccc(Cl)cc3CCc3cc(Br)cnc32)CC1` [Example 16], for which it took 2300 nM to reach half-maximal inhibition (IC50). On the same count and under the same terms, to `N#CN=C(Nc1ccc2c(c1)COCO2)N1CCC(=C2c3ccc(Cl)cc3CCc3cc(Br)cnc32)CC1` [Example 11] belongs 250 nM; to `CCCCNC(=NC#N)N1CCC(=C2c3ccc(Cl)cc3CCc3cc(Br)cnc32)CC1` [Example 20], 1600 nM; to `N#CN=C(NCc1cccnc1)N1CCC(=C2c3ccc(Cl)cc3CCc3cc(Br)cnc32)CC1` [Example 41], 700 nM.

The compound `N#CN=C(NCCO)N1CCC(=C2c3ccc(Cl)cc3CCc3cc(Br)cnc32)CC1` [Example 27] yielded an IC50 of 2600 nM. The compound `N#CN=C(Nc1ccc(C#N)cc1)N1CCC(=C2c3ccc(Cl)cc3CCc3cc(Br)cnc32)CC1` [Example 37] came in with an IC50 of 280 nM. In the case of `CNC(=NC#N)N1CCC(=C2c3ccc(Cl)cc3CCc3cc(Br)cnc32)CC1` [Example 17], 5000 nM corresponded to half-maximal inhibition (IC50). With `N#CN=C(NCCc1ccncc1)N1CCC(=C2c3ccc(Cl)cc3CCc3cc(Br)cnc32)CC1` [Example 36], half-maximal inhibition (IC50) was put at 280 nM.

Turning to `N#CN=C(NCc1ccccn1)N1CCC(=C2c3ccc(Cl)cc3CCc3cc(Br)cnc32)CC1` [Example 26], the IC50 came to 750 nM.

For `N#CN=C(NC1CCCCC1)N1CCC(=C2c3ccc(Cl)cc3CCc3cc(Br)cnc32)CC1` [Example 19], the IC50 came to 480 nM. In turn, `N#CN=C(Nc1cccnc1)N1CCC(=C2c3ccc(Cl)cc3CCc3cc(Br)cnc32)CC1` [Example 23] gave an IC50 of 2400 nM. With `N#CN=C(Nc1ccc2c(c1)OCO2)N1CCC(=C2c3ccc(Cl)cc3CCc3cc(Br)cnc32)CC1` [Example 18], it took 800 nM to reach half-maximal inhibition (IC50).
